Laboratory results from PMC11312515, “Biochemical and Structural Characterization of a Novel Psychrophilic Laccase (Multicopper Oxidase) Discovered from Oenococcus oeni 229 (ENOLAB 4002)” (International Journal of Molecular Sciences, 2024).

T1: LcOe 229 (Oenococcus oeni, UniProt Q04HQ8)
T1 construct: gene OEOE_0009
T1 sequence (Q04HQ8 1-488): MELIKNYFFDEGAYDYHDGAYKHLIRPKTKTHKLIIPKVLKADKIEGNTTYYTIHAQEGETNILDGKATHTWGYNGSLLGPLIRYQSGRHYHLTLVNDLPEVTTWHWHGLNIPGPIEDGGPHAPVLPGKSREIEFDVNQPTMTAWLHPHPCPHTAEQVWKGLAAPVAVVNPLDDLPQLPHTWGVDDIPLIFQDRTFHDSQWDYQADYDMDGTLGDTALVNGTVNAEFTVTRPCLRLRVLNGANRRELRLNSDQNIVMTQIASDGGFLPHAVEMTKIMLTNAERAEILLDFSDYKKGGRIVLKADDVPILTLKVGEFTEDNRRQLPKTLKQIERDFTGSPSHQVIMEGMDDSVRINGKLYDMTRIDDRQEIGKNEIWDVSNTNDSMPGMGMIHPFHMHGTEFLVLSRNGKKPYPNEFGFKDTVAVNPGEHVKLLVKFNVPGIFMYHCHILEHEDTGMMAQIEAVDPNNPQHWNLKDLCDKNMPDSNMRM


What was measured:
LcOe 229 [1] = biological target: T1, LcOe 229; conditions: read-out: % residual activity at 1 mM
LcOe 229 [2] = biological target: T1, LcOe 229; type: biochemical; conditions: 2 mM ABTS, 0.1 mM CuSO4, McIlvaine buffer pH 2.5
[3] = substrate: COc1cccc(OC)c1O; experiment: oxidation followed at OD468, microplate, initial rates; type: biochemical, Oenococcus oeni; conditions: McIlvaine buffer pH 8, 24 °C, hyperbolic

Molecule	remaining activity at 1000 µM (LcOe 229 [1])	% residual activity at 1 mM (LcOe 229 [2])	also measured
c1ccc(-c2ccccn2)nc1 [2,2′-bipyridyl]	94%		
CCN=C=NCCCN(C)C [EDC]		observed with ZnCl2, EDTA, pargyline, EDC, deprenyl, clorgyline, and NaCl	
C#CCN(C)CCCOc1ccc(Cl)cc1Cl [clorgyline]		observed with ZnCl2, EDTA, pargyline, EDC, deprenyl, clorgyline, and NaCl	
NC1CC1 [cyclopropylamine]	77%		
C#CCN(C)C(C)Cc1ccccc1 (stereo not drawn) [deprenyl]		observed with ZnCl2, EDTA, pargyline, EDC, deprenyl, clorgyline, and NaCl	
C#CCN(C)Cc1ccccc1 [pargyline]		observed with ZnCl2, EDTA, pargyline, EDC, deprenyl, clorgyline, and NaCl	
C#CCN[C@@H]1CCc2ccccc21 [rasagiline]	65%		
NNC(N)=O [semicarbazide]	< 15%		
LcOe 229 (Oenococcus oeni PSU-1) (protein, full length, 488 residues, 55544 Da, in pET-28a(+) NheI/BamHI, N-terminal His tag (thrombin-cleavable; cleavage told for crystallography), E. coli BL21(DE3)/pGro7; Ni-NTA; monomer; PCR fragment given as 1641 bp) MELIKNYFFDEGAYDYHDGAYKHLIRPKTKTHKLIIPKVLKADKIEGNTTYYTIHAQEGETNILDGKATHTWGYNGSLLGPLIRYQSGRHYHLTLVNDLPEVTTWHWHGLNIPGPIEDGGPHAPVLPGKSREIEFDVNQPTMTAWLHPHPCPHTAEQVWKGLAAPVAVVNPLDDLPQLPHTWGVDDIPLIFQDRTFHDSQWDYQADYDMDGTLGDTALVNGTVNAEFTVTRPCLRLRVLNGANRRELRLNSDQNIVMTQIASDGGFLPHAVEMTKIMLTNAERAEILLDFSDYKKGGRIVLKADDVPILTLKVGEFTEDNRRQLPKTLKQIERDFTGSPSHQVIMEGMDDSVRINGKLYDMTRIDDRQEIGKNEIWDVSNTNDSMPGMGMIHPFHMHGTEFLVLSRNGKKPYPNEFGFKDTVAVNPGEHVKLLVKFNVPGIFMYHCHILEHEDTGMMAQIEAVDPNNPQHWNLKDLCDKNMPDSNMRM			Km [3]: 0.73 (±0.17) mM; Vmax [3]: 0.01 µmol/min/mg; kcat [3]: 0.01 s⁻¹; kcat/Km [3]: 10 M⁻¹ s⁻¹
